Reference: patent EP0171977A1, “Phthalimide derivatives, compositions containing them and a process for preparing them” (SANKYO COMPANY LIMITED, priority 1984, dated 1986)
Read-outs that look alike come from different tables or passages of the source.

Key:
collateral blood vessels = experiment: Selective vasodilative effect on collateral blood vessels (coronary vascular resistance, method of Winburg et al.); format: in vivo; details: anaesthetized dogs, test compound 30 ug/kg intravenously vs glyceryl trinitrate 3 µg/kg; for Glyceryl trinitrate ratio RL/RT: ratio of selectivity (RL/RT) of test compound to that of glyceryl trinitrate; for Glyceryl trinitrate ratio RL: ratio of vascular resistance (RL) of test compound to that of glyceryl trinitrate
Method: The test animals employed in this experiment were dogs. Each animal was anaesthetized with pentobarbital and the chest was opened to expose the heart, whilst respiration was maintained artificially.
Following the method of Winburg et al. [J. Pharmacol. Exp. Ther., 168, 70-95 (1969)], the vascular resistance (RL) between two points, one at a large coronary artery on the cardiac surface and the other at a small coronary artery, was calculated by dividing the blood pressure difference between these two points by the blood flow. The peripheral resistance of the coronary artery (RT) was determined and the value RL was divided by the value RT, to give the selectivity (RL/RT).
Each compound of the invention tested was administered intravenously at a dose of 30 ug/kg body weight immediately prior to the measurement of vascular resistance. The same experiment was carried out employing glyceryl trinitrate at a dose of 3 µg/kg body weight and the results are reported in the following Table 1 as the glyceryl trinitrate ratios, i.e. the ratio between the vascular resistance of the test compound and that of glyceryl trinitrate or the selectivity of the test compound and that of glyceryl trinitrate.

[1] = test system: right atrium of a guinea pig heart; experiment: Effect on heart beat: spontaneous contraction of excised right atrium; details: for inhibition at 100 µg/mL: Concentration 1x10^-4 g/ml; for inhibition at 30 µg/mL: Concentration 3x10^-5 g/ml
Method: The right atrium of a guinea pig heart was excised and placed in a bath containing Krebs - Henseleit solution maintained at 37°C, through which was bubbled a gas containing 95% oxygen and 5% carbon dioxide. […] The results, in terms of the percentage decrease (-) or increase (+) in the rate of heart beat, for the compounds of the invention and for glyceryl trinitrate are shown in Table 2.

[2] = Cavia porcellus, Krebs - Henseleit solution, 37°C, read-out: percentage decrease (-) or increase (+) in the rate of heart beat
[3] = Cavia porcellus, Concentration 1x10^-5 g/ml, Krebs - Henseleit solution, 37°C, read-out: percentage decrease (-) or increase (+) in the rate of heart beat
[4] = Cavia porcellus, read-out: percentage decrease (-) or increase (+) in the rate of heart beat

CCN(CC)CCOc1ccc2c(c1)C(=O)N(CCO[N+](=O)[O-])C2=O [Compound No. 25, N-(2-nitrooxyethyl)-4-(2-N,N-diethylaminoethoxy)-phthalimide]
Glyceryl trinitrate ratio RL/RT (collateral blood vessels): 1.6 | Glyceryl trinitrate ratio RL (collateral blood vessels): 1.6 | inhibition at 100 µg/mL [1, 2]: 73% | inhibition at 10 µg/mL [1, 3]: 53% | inhibition at 30 µg/mL [1, 2]: 67%

CC(C)N(CCOc1ccc2c(c1)C(=O)N(CCO[N+](=O)[O-])C2=O)C(C)C [Compound No. 27, N-(2-nitrooxyethyl)-4-(2-N,N-diisopropylamino-ethoxy)phthalimide]
Glyceryl trinitrate ratio RL/RT (collateral blood vessels): 1.4 | Glyceryl trinitrate ratio RL (collateral blood vessels): 1.8 | inhibition at 100 µg/mL [1, 2]: 71% | inhibition at 10 µg/mL [1, 3]: 59% | inhibition at 30 µg/mL [1, 2]: 64%

CN(C)CCCOc1ccc2c(c1)C(=O)N(CCO[N+](=O)[O-])C2=O [Compound No. 51, N-(2-nitrooxyethyl)-4-(3-N,N-dimethylamino-propoxy)phthalimide]
Glyceryl trinitrate ratio RL/RT (collateral blood vessels): 1.4 | Glyceryl trinitrate ratio RL (collateral blood vessels): 1.6 | inhibition at 100 µg/mL [1, 2]: 64% | inhibition at 10 µg/mL [1, 3]: 31% | inhibition at 30 µg/mL [1, 2]: 58%

CC(COc1ccc2c(c1)C(=O)N(CCO[N+](=O)[O-])C2=O)CN(C)C (centres unmarked) [Compound No. 54, N-(2-nitrooxyethyl)-4-(3-N,N-dimethylamino-2-methylpropoxy)phthalimide]
Glyceryl trinitrate ratio RL/RT (collateral blood vessels): 2.1 | Glyceryl trinitrate ratio RL (collateral blood vessels): 1.7 | inhibition at 100 µg/mL [1, 2]: 62% | inhibition at 10 µg/mL [1, 3]: 37% | inhibition at 30 µg/mL [1, 2]: 56%

O=C1c2ccc(OCCN3CCCCC3)cc2C(=O)N1CCO[N+](=O)[O-] [Compound No. 59, N-(2-nitrooxyethyl)-4-(2-piperidinoethoxy)-phthalimide]
Glyceryl trinitrate ratio RL/RT (collateral blood vessels): 1.6 | Glyceryl trinitrate ratio RL (collateral blood vessels): 1.2 | inhibition at 100 µg/mL [1, 2]: 74% | inhibition at 10 µg/mL [1, 3]: 32% | inhibition at 30 µg/mL [1, 2]: 61%

O=[N+]([O-])OCC(CO[N+](=O)[O-])O[N+](=O)[O-] [Glyceryl trinitrate, reference compound]
inhibition at 1 µg/mL [1, 4]: 0% | inhibition at 3 µg/mL [1, 4]: -1% | inhibition at 10 µg/mL [1, 4]: 0% | change in the heart beat ([1]; added at doses between 10^-6 and 10 ^5 g/ml): very little or no change
